Measured values published in publication PMC4268243 (Nuclear medicine and biology, 2014).

Experiments:
U87 glioblastoma cells = assay: Amino acid uptake and inhibition in U87 cells; assay type: cell-based, human; settings: for Cell uptake: U87, 30 minutes incubation
[1] = system: MDA MB468 estrogen-independent breast carcinoma cells; assay: Amino acid uptake and inhibition in MDA MB468 cells; assay type: cell-based, human; settings: for Cell uptake: MDA MB468, 30 minutes incubation
[2] = system: MDA MB468 tumor xenograft; assay: Biodistribution in MDA MB468 tumor-bearing SCID mice; assay type: in vivo
SKOV3 tumor xenograft = assay: Biodistribution in SKOV3 tumor-bearing SCID mice; assay type: in vivo
[3] = system: human A549, DU145, U87, MDA MB468 and SKOV3 tumor cells; assay: Amino acid uptake and inhibition, summary over the five tumor cell lines; assay type: cell-based; settings: for inhibition of uptake by BCH: 10 mM BCH; for inhibition of uptake by BCH / inhibition of uptake by MeAIB: relative to control, most cell lines; for inhibition of uptake by MeAIB: 10 mM MeAIB; for uptake in tumor cells: 30 minutes incubation, without inhibitors, range over the cell lines; for amino acid transport system mediating uptake / selectivity: AAT cell inhibition assays with MeAIB and BCH
[4] = system: SCID mice xenograft tumor models; assay type: in vivo; settings: in most cases, over tumors and time points
[5] = 15 min post injection, listed as (S)-[^18F]FAMP 1
[6] = 30 min post injection, listed as (S)-[^18F]FAMP 1
[7] = 60 min post injection, listed as (S)-[^18F]FAMP 1
[8] = 120 min post injection, listed as (S)-[^18F]FAMP 1
[9] = 15 min post injection, listed as (R)-[^18F] FAMP 1
[10] = 30 min post injection, listed as (R)-[^18F] FAMP 1
[11] = 60 min post injection, listed as (R)-[^18F] FAMP 1
[12] = 120 min post injection, listed as (R)-[^18F] FAMP 1

## CC(N)(C[18F])C(=O)O [(S)-[^18F]1] [2-amino-3-[^18F]fluoro-2-methylpropanoic acid]
U87 glioblastoma cells; 10 mM BCH
  Cell uptake: 0.8±0.1 % ID/5×10^5 cells
U87 glioblastoma cells; 10 mM MeAIB
  Cell uptake: 1.0±0.04 % ID/5×10^5 cells
U87 glioblastoma cells; Control (no inhibitor)
  Cell uptake: 1.5±0.1 % ID/5×10^5 cells
[1]; 10 mM BCH
  Cell uptake: 2.2±0.1 % ID/5×10^5 cells
[1]; 10 mM MeAIB
  Cell uptake: 3.5±0.2 % ID/5×10^5 cells
[1]; Control (no inhibitor)
  Cell uptake: 3.4±0.3 % ID/5×10^5 cells
[1]; MDA MB468 cells, 10 mM MeAIB
  inhibition of uptake by MeAIB: no significant MeAIB inhibition
[2]; [5]
  uptake in blood: 4.2±0.3 %ID/g
  uptake in bone: 2.5±0.3 %ID/g
  uptake in brain: 0.6±0.1 %ID/g
  uptake in heart: 3.4±0.3 %ID/g
  uptake in kidney: 39±3.3 %ID/g
  uptake in liver: 4.8±0.9 %ID/g
  uptake in lung: 4.5±1.3 %ID/g
  uptake in muscle: 3.9±0.7 %ID/g
  uptake in pancreas: 51±10 %ID/g
  uptake in spleen: 14±2.8 %ID/g
  uptake in tumor: 5.8±0.7 %ID/g
[2]; [6]
  uptake in blood: 3.6±0.4 %ID/g
  uptake in bone: 2.4±0.6 %ID/g
  uptake in brain: 0.8±0.2 %ID/g
  uptake in heart: 3.2±0.3 %ID/g
  uptake in kidney: 29±6.1 %ID/g
  uptake in liver: 4.7±0.8 %ID/g
  uptake in lung: 4.3±1.9 %ID/g
  uptake in muscle: 3.4±0.4 %ID/g
  uptake in pancreas: 56±7.6 %ID/g
  uptake in spleen: 12±4.2 %ID/g
  uptake in tumor: 6.1±1.4 %ID/g
[2]; 60 min post injection
  uptake in tumor: 4.8±1.2 %ID/g
[2]; [7]
  uptake in blood: 2.9±1.0 %ID/g
  uptake in bone: 2.2±0.6 %ID/g
  uptake in brain: 0.7±0.1 %ID/g
  uptake in heart: 2.9±0.5 %ID/g
  uptake in kidney: 20±2.7 %ID/g
  uptake in liver: 4.3±0.6 %ID/g
  uptake in lung: 2.6±0.6 %ID/g
  uptake in muscle: 2.7±0.6 %ID/g
  uptake in pancreas: 46±9.5 %ID/g
  uptake in spleen: 7.1±0.9 %ID/g
[2]; [8]
  uptake in blood: 1.5±0.1 %ID/g
  uptake in bone: 1.0±0.6 %ID/g
  uptake in brain: 0.8±0.1 %ID/g
  uptake in heart: 2.0±0.2 %ID/g
  uptake in kidney: 11±1.4 %ID/g
  uptake in liver: 2.6±0.2 %ID/g
  uptake in lung: 1.6±0.4 %ID/g
  uptake in muscle: 1.3±0.5 %ID/g
  uptake in pancreas: 23±6.8 %ID/g
  uptake in spleen: 5.6±2.2 %ID/g
  uptake in tumor: 5.0±0.4 %ID/g
SKOV3 tumor xenograft; [5]
  uptake in blood: 3.5±0.8 %ID/g
  uptake in bone: 2.2±0.7 %ID/g
  uptake in brain: 0.4±0.1 %ID/g
  uptake in heart: 2.8±0.8 %ID/g
  uptake in kidney: 31±6.8 %ID/g
  uptake in liver: 3.6±1.0 %ID/g
  uptake in lung: 4.8±1.3 %ID/g
  uptake in muscle: 2.8±0.9 %ID/g
  uptake in pancreas: 44±15 %ID/g
  uptake in spleen: 9.8±4.3 %ID/g
  uptake in tumor: 6.2±4.1 %ID/g
SKOV3 tumor xenograft; [6]
  uptake in blood: 3.1±0.7 %ID/g
  uptake in bone: 2.2±0.4 %ID/g
  uptake in brain: 0.5±0.1 %ID/g
  uptake in heart: 2.8±0.5 %ID/g
  uptake in kidney: 22±4.9 %ID/g
  uptake in liver: 3.9±0.6 %ID/g
  uptake in lung: 4.4±0.7 %ID/g
  uptake in muscle: 2.8±0.5 %ID/g
  uptake in pancreas: 40±13 %ID/g
  uptake in spleen: 8.4±2.1 %ID/g
  uptake in tumor: 7.3±3.0 %ID/g
SKOV3 tumor xenograft; [7]
  uptake in blood: 2.1±0.6 %ID/g
  uptake in bone: 1.7±0.6 %ID/g
  uptake in brain: 0.6±0.2 %ID/g
  uptake in heart: 2.6±0.7 %ID/g
  uptake in kidney: 15±4.8 %ID/g
  uptake in liver: 3.6±1.1 %ID/g
  uptake in lung: 3.2±1.1 %ID/g
  uptake in muscle: 2.2±0.7 %ID/g
  uptake in pancreas: 36±8.6 %ID/g
  uptake in spleen: 5.5±1.2 %ID/g
  uptake in tumor: 6.2±3.1 %ID/g
SKOV3 tumor xenograft; [8]
  uptake in bone: 1.6±1.1 %ID/g
  uptake in brain: 0.7±0.3 %ID/g
  uptake in heart: 2.6±1.4 %ID/g
  uptake in kidney: 11±5.0 %ID/g
  uptake in liver: 3.2±0.7 %ID/g
  uptake in lung: 2.3±0.8 %ID/g
  uptake in muscle: 1.7±0.9 %ID/g
  uptake in pancreas: 22±3.6 %ID/g
  uptake in spleen: 4.6±2.3 %ID/g
  uptake in tumor: 5.1±1.6 %ID/g
[3]
  inhibition of uptake by BCH: 36-68%
  inhibition of uptake by MeAIB: 10-32%
  uptake in tumor cells: 2-5 %ID/5×10^5 cells
  amino acid transport system mediating uptake / selectivity: mixed AATs, likely but not limited to system A and system L
[4]
  ratio of tumor to muscle: above 2

## CC(N)(C[18F])C(=O)O [(R)-[^18F]1] [2-amino-3-[^18F]fluoro-2-methylpropanoic acid]
U87 glioblastoma cells; 10 mM BCH
  Cell uptake: 4.8±0.3 % ID/5×10^5 cells
U87 glioblastoma cells; 10 mM MeAIB
  Cell uptake: 2.0±0.3 % ID/5×10^5 cells
U87 glioblastoma cells; Control (no inhibitor)
  Cell uptake: 6.0±0.3 % ID/5×10^5 cells
U87 glioblastoma cells; U87 cells, 10 mM BCH, relative to control
  inhibition of uptake by BCH: 20%
U87 glioblastoma cells; U87 cells, 10 mM MeAIB, relative to control
  inhibition of uptake by MeAIB: 67%
[1]; 10 mM BCH
  Cell uptake: 3.0±0.4 % ID/5×10^5 cells
[1]; 10 mM MeAIB
  Cell uptake: 4.4±0.2 % ID/5×10^5 cells
[1]; Control (no inhibitor)
  Cell uptake: 5.7±0.3 % ID/5×10^5 cells
[2]; [9]
  uptake in blood: 3.0±0.2 %ID/g
  uptake in bone: 2.7±0.6 %ID/g
  uptake in brain: 0.7±0.2 %ID/g
  uptake in heart: 3.9±0.6 %ID/g
  uptake in kidney: 17±2.3 %ID/g
  uptake in liver: 4.4±0.9 %ID/g
  uptake in lung: 5.4±0.6 %ID/g
  uptake in muscle: 2.2±0.8 %ID/g
  uptake in pancreas: 61±8.4 %ID/g
  uptake in spleen: 8.7±2.2 %ID/g
  uptake in tumor: 6.0±1.8 %ID/g
[2]; [10]
  uptake in blood: 2.0±0.4 %ID/g
  uptake in bone: 2.2±0.6 %ID/g
  uptake in brain: 0.8±0.1 %ID/g
  uptake in heart: 3.5±1.0 %ID/g
  uptake in kidney: 9.1±2.8 %ID/g
  uptake in liver: 4.5±1.0 %ID/g
  uptake in lung: 3.3±1.1 %ID/g
  uptake in muscle: 2.0±0.6 %ID/g
  uptake in pancreas: 39±11 %ID/g
  uptake in spleen: 6.5±1.1 %ID/g
  uptake in tumor: 5.3±1.7 %ID/g
[2]; 60 min post injection
  uptake in tumor: 4.8±1.2 %ID/g
[2]; [11]
  uptake in blood: 1.1±0.3 %ID/g
  uptake in bone: 1.7±0.5 %ID/g
  uptake in brain: 0.8±0.1 %ID/g
  uptake in heart: 3.3±0.8 %ID/g
  uptake in kidney: 5.0±1.1 %ID/g
  uptake in liver: 3.8±0.9 %ID/g
  uptake in lung: 2.2±0.5 %ID/g
  uptake in muscle: 2.0±0.6 %ID/g
  uptake in pancreas: 20±7.2 %ID/g
  uptake in spleen: 4.1±1.3 %ID/g
[2]; [12]
  uptake in blood: 0.5±0.2 %ID/g
  uptake in bone: 1.1±0.5 %ID/g
  uptake in brain: 0.9±0.1 %ID/g
  uptake in heart: 2.3±0.4 %ID/g
  uptake in kidney: 2.4±1.1 %ID/g
  uptake in liver: 4.1±0.8 %ID/g
  uptake in lung: 1.1±0.4 %ID/g
  uptake in muscle: 1.6±0.6 %ID/g
  uptake in pancreas: 11±4.6 %ID/g
  uptake in spleen: 2.2±1.1 %ID/g
  uptake in tumor: 3.6±0.7 %ID/g
SKOV3 tumor xenograft; [9]
  uptake in bone: 2.6±1.0 %ID/g
  uptake in brain: 0.7±0.4 %ID/g
  uptake in heart: 4.0±2.1 %ID/g
  uptake in kidney: 17±4.5 %ID/g
  uptake in liver: 4.6±2.5 %ID/g
  uptake in lung: 3.9±1.3 %ID/g
  uptake in muscle: 2.3±1.1 %ID/g
  uptake in pancreas: 38±18 %ID/g
  uptake in spleen: 8.7±3.4 %ID/g
  uptake in tumor: 10±4.8 %ID/g
SKOV3 tumor xenograft; [10]
  uptake in blood: 2.7±0.3 %ID/g
  uptake in bone: 2.8±0.7 %ID/g
  uptake in brain: 1.0±0.04 %ID/g
  uptake in heart: 4.9±0.1 %ID/g
  uptake in kidney: 14±2.6 %ID/g
  uptake in liver: 5.0±0.7 %ID/g
  uptake in lung: 3.1±0.3 %ID/g
  uptake in muscle: 2.8±0.3 %ID/g
  uptake in pancreas: 41±7.4 %ID/g
  uptake in spleen: 13±3.6 %ID/g
  uptake in tumor: 14±1.1 %ID/g
SKOV3 tumor xenograft; [11]
  uptake in blood: 2.1±0.1 %ID/g
  uptake in bone: 2.3±0.3 %ID/g
  uptake in brain: 1.0±0.3 %ID/g
  uptake in heart: 4.9±1.1 %ID/g
  uptake in kidney: 10±0.8 %ID/g
  uptake in liver: 4.5±0.3 %ID/g
  uptake in lung: 2.5±0.3 %ID/g
  uptake in muscle: 2.6±0.6 %ID/g
  uptake in pancreas: 34±4.7 %ID/g
  uptake in spleen: 6.8±1.0 %ID/g
  uptake in tumor: 9.0±2.2 %ID/g
SKOV3 tumor xenograft; [12]
  uptake in blood: 1.5±0.2 %ID/g
  uptake in bone: 1.9±0.4 %ID/g
  uptake in brain: 1.2±0.2 %ID/g
  uptake in heart: 3.6±0.6 %ID/g
  uptake in kidney: 7.0±0.8 %ID/g
  uptake in liver: 2.7±0.5 %ID/g
  uptake in lung: 1.8±0.3 %ID/g
  uptake in muscle: 2.0±0.4 %ID/g
  uptake in pancreas: 19±2.4 %ID/g
  uptake in spleen: 4.5±1.1 %ID/g
  uptake in tumor: 6.2±0.5 %ID/g
[3]
  inhibition of uptake by BCH: 36-68%
  inhibition of uptake by MeAIB: 10-32%
  uptake in tumor cells: 5-9 %ID/5×10^5 cells
  amino acid transport system mediating uptake / selectivity: mixed AATs, likely but not limited to system A and system L
[4]
  ratio of tumor to muscle: above 2.5
